According to ChEMBL document CHEMBL3044572, “Discovery of 2-(4-cyano-3-trifluoromethylphenyl amino)-4-(4-quinazolinyloxy)-6-piperazinyl(piperidinyl)-s-triazines as potential antibacterial agents” (2012):
Converted amounts (≈) assume the structure as drawn. The source made the active and inactive calls. No cut-off for these calls is given here.

What was measured:
[1] = tested on: Bacillus cereus; experiment: Antimicrobial activity against Bacillus cereus MTCC 619 by agar streak dilution method; format: functional
[2] = tested on: Klebsiella pneumoniae; experiment: Antimicrobial activity against Klebsiella pneumoniae MTCC 109 by agar streak dilution method; format: functional
[3] = tested on: Proteus vulgaris; experiment: Antimicrobial activity against Proteus vulgaris MTCC 1771 by agar streak dilution method; format: functional
[4] = tested on: Aspergillus niger; experiment: Antimicrobial activity against Aspergillus niger MTCC 282 by agar streak dilution method; format: functional
[5] = tested on: Shigella flexneri; experiment: Antimicrobial activity against Shigella flexneri MTCC 1457 at 100 ug/ml by paper-disk diffusion method; format: functional, organism-based
[6] = tested on: Escherichia coli; experiment: Antimicrobial activity against Escherichia coli MTCC 739 by agar streak dilution method; format: functional
[7] = tested on: Pseudomonas aeruginosa; experiment: Antimicrobial activity against Pseudomonas aeruginosa MTCC 741 by agar streak dilution method; format: functional
[8] = tested on: Aspergillus niger; experiment: Antimicrobial activity against Aspergillus niger MTCC 282 by paper-disk diffusion method; format: functional
[9] = tested on: Candida albicans; experiment: Antimicrobial activity against Candida albicans MTCC 183 by paper-disk diffusion method; format: functional
[10] = tested on: Salmonella typhi; experiment: Antimicrobial activity against Salmonella enterica subsp. enterica serovar Typhi MTCC 733 by agar streak dilution method; format: functional
[11] = tested on: Proteus vulgaris; experiment: Antimicrobial activity against Proteus vulgaris MTCC 1771 by paper disk diffusion method; format: functional
[12] = tested on: Klebsiella pneumoniae; experiment: Antimicrobial activity against Klebsiella pneumoniae MTCC 109 by paper disk diffusion method; format: functional
[13] = tested on: Bacillus cereus; experiment: Antimicrobial activity against Bacillus cereus MTCC 619 by paper disk diffusion method; format: functional
[14] = tested on: Aspergillus fumigatus; experiment: Antimicrobial activity against Aspergillus fumigatus MTCC 343 by agar streak dilution method; format: functional
[15] = tested on: Pseudomonas aeruginosa; experiment: Antimicrobial activity against Pseudomonas aeruginosa MTCC 741 by paper disk diffusion method; format: functional
[16] = tested on: Staphylococcus aureus; experiment: Antimicrobial activity against Staphylococcus aureus MTCC 96 by agar streak dilution method; format: functional
[17] = tested on: Candida albicans; experiment: Antimicrobial activity against Candida albicans MTCC 183 by agar streak dilution method; format: functional
[18] = tested on: Aspergillus fumigatus; experiment: Antimicrobial activity against Aspergillus fumigatus MTCC 343 by paper-disk diffusion method; format: functional
[19] = tested on: Mycobacterium tuberculosis; experiment: Antimicrobial activity against Mycobacterium tuberculosis H37Rv by Lowenstein and Jensen method; format: functional; details: for MIC: Mycobacterium tuberculosis, H37Rv
[20] = tested on: Escherichia coli; experiment: Antimicrobial activity against Escherichia coli MTCC 739 by paper disk diffusion method; format: functional
[21] = tested on: Salmonella typhi; experiment: Antimicrobial activity against Salmonella enterica subsp. enterica serovar Typhi MTCC 733 by paper disk diffusion method; format: functional
[22] = tested on: Mycobacterium tuberculosis; experiment: Antimicrobial activity against Mycobacterium tuberculosis H37Rv at 100 ug/ml by BACTEC MGIT method; format: functional, organism-based
[23] = tested on: Staphylococcus aureus; experiment: Antimicrobial activity against Staphylococcus aureus MTCC 96 by paper-disk diffusion method; format: functional
[24] = tested on: Aspergillus clavatus; experiment: Antimicrobial activity against Aspergillus clavatus MTCC 1323 by agar streak dilution method; format: functional
[25] = tested on: Mycobacterium tuberculosis; experiment: Antimicrobial activity against Mycobacterium tuberculosis H37Rv by BACTEC MGIT method; format: functional; details: Mycobacterium tuberculosis, H37Rv
[26] = tested on: Aspergillus clavatus; experiment: Antimicrobial activity against Aspergillus clavatus MTCC 1323 by paper disk diffusion method; format: functional
[27] = tested on: Shigella flexneri; experiment: Antimicrobial activity against Shigella flexneri MTCC 1457 by agar streak dilution method; format: functional
[28] = tested on: Aspergillus fumigatus; experiment: Antimicrobial activity against Aspergillus fumigatus MTCC 343 at 100 ug/ml by paper-disk diffusion method; format: functional, organism-based
[29] = tested on: Pseudomonas aeruginosa; experiment: Antimicrobial activity against Pseudomonas aeruginosa MTCC 741 at 100 ug/ml by paper disk diffusion method; format: functional, organism-based
[30] = tested on: Shigella flexneri; experiment: Antimicrobial activity against Shigella flexneri MTCC 1457 by paper disk diffusion method; format: functional

| Compound | MIC [1] [µg/mL] | MIC [2] [µg/mL] | MIC [3] [µg/mL] | MIC [4] [µg/mL] | MIC [6] [µg/mL] | inhibition zone (IZ) [8] [mm] | inhibition zone (IZ) [9] [mm] | MIC [10] [µg/mL] | inhibition zone (IZ) [11] [mm] | inhibition zone (IZ) [12] [mm] | inhibition zone (IZ) [13] [mm] | MIC [16] [µg/mL] | MIC [17] [µg/mL] | inhibition (percent inhibition) [19] [%] | MIC [19] [µg/mL] | inhibition zone (IZ) [20] [mm] | inhibition zone (IZ) [21] [mm] | inhibition [22] | inhibition zone (IZ) [23] [mm] | MIC [24] [µg/mL] | other results |
| --- | --- | --- | --- | --- | --- | --- | --- | --- | --- | --- | --- | --- | --- | --- | --- | --- | --- | --- | --- | --- | --- |
| CC(C)N1CCN(c2nc(Nc3ccc(C#N)c(C(F)(F)F)c3)nc(Oc3ncnc4ccccc34)n2)CC1 | 50 (≈ 93.4 µM) | 50 (≈ 93.4 µM) | 25 (≈ 46.7 µM) | 100 (≈ 187 µM) | 12.5 (≈ 23.3 µM) | 22 | 23 | 50 (≈ 93.4 µM) | 24 | 22 | 23 | 25 (≈ 46.7 µM) | 50 (≈ 93.4 µM) | 97 | 50 (≈ 93.4 µM) | 27 | 23 | inactive | 25 | 25 (≈ 46.7 µM) | inhibition zone (IZ) [5]: inactive; MIC [7]: 12.5 µg/mL (≈ 23.3 µM); MIC [14]: 50 µg/mL (≈ 93.4 µM); inhibition zone (IZ) [15]: 24 mm; inhibition zone (IZ) [18]: 23 mm; MIC [25]: > 6.25 µg/mL; inhibition zone (IZ) [26]: 23 mm |
| N#Cc1ccc(Nc2nc(Oc3ncnc4ccccc34)nc(N3CCN(Cc4ccccc4)CC3)n2)cc1C(F)(F)F | 100 (≈ 171 µM) | 100 (≈ 171 µM) | 100 (≈ 171 µM) | 100 (≈ 171 µM) | 100 (≈ 171 µM) | 21 | 21 | 100 (≈ 171 µM) | 21 | 23 | 23 | 50 (≈ 85.7 µM) | 100 (≈ 171 µM) | 95 | 500 (≈ 857 µM) | 21 | 23 | inactive | 22 | 100 (≈ 171 µM) | MIC [27]: 100 µg/mL (≈ 171 µM); inhibition zone (IZ) [28]: inactive; inhibition zone (IZ) [29]: inactive; inhibition zone (IZ) [30]: 20 mm; MIC [25]: > 6.25 µg/mL; inhibition zone (IZ) [26]: 20 mm |
| COc1ccc(N2CCN(c3nc(Nc4ccc(C#N)c(C(F)(F)F)c4)nc(Oc4ncnc5ccccc45)n3)CC2)cc1 | 6.25 (≈ 10.4 µM) | 12.5 (≈ 20.8 µM) | 6.25 (≈ 10.4 µM) | 6.25 (≈ 10.4 µM) | 6.25 (≈ 10.4 µM) | 25 | 25 | 25 (≈ 41.7 µM) | 26 | 25 | 25 | 6.25 (≈ 10.4 µM) | 12.5 (≈ 20.8 µM) | 99 | 25 (≈ 41.7 µM) | 28 | 25 | inactive | 27 | 6.25 (≈ 10.4 µM) | MIC [27]: 50 µg/mL (≈ 83.4 µM); inhibition zone (IZ) [29]: inactive; MIC [7]: 12.5 µg/mL (≈ 20.8 µM); MIC [14]: 6.25 µg/mL (≈ 10.4 µM); inhibition zone (IZ) [15]: 27 mm; inhibition zone (IZ) [18]: 25 mm; inhibition zone (IZ) [30]: 23 mm; MIC [25]: > 6.25 µg/mL; inhibition zone (IZ) [26]: 25 mm |
| N#Cc1ccc(Nc2nc(Oc3ncnc4ccccc34)nc(N3CCN(c4ccccc4Cl)CC3)n2)cc1C(F)(F)F | 50 (≈ 82.8 µM) | 100 (≈ 166 µM) | 25 (≈ 41.4 µM) | 50 (≈ 82.8 µM) | 100 (≈ 166 µM) | 22 | 25 | 6.25 (≈ 10.3 µM) | 24 | 23 | 24 | 12.5 (≈ 20.7 µM) | 12.5 (≈ 20.7 µM) | 97 | 25 (≈ 41.4 µM) | 22 | 26 | inactive | 26 | 50 (≈ 82.8 µM) | MIC [27]: 12.5 µg/mL (≈ 20.7 µM); inhibition zone (IZ) [29]: inactive; MIC [7]: 25 µg/mL (≈ 41.4 µM); MIC [14]: 12.5 µg/mL (≈ 20.7 µM); inhibition zone (IZ) [15]: 24 mm; inhibition zone (IZ) [18]: 24 mm; inhibition zone (IZ) [30]: 27 mm; MIC [25]: > 6.25 µg/mL; inhibition zone (IZ) [26]: 22 mm |
| N#Cc1ccc(Nc2nc(Oc3ncnc4ccccc34)nc(N3CCN(c4ccc(F)cc4)CC3)n2)cc1C(F)(F)F | 12.5 (≈ 21.3 µM) | 25 (≈ 42.6 µM) | 12.5 (≈ 21.3 µM) | 12.5 (≈ 21.3 µM) | 25 (≈ 42.6 µM) | 25 | 27 | 6.25 (≈ 10.6 µM) | 24 | 23 | 26 | 6.25 (≈ 10.6 µM) | 6.25 (≈ 10.6 µM) | 98 | 12.5 (≈ 21.3 µM) | 25 | 27 | inactive | 28 | 12.5 (≈ 21.3 µM) | MIC [27]: 50 µg/mL (≈ 85.1 µM); inhibition zone (IZ) [29]: inactive; MIC [7]: 6.25 µg/mL (≈ 10.6 µM); MIC [14]: 12.5 µg/mL (≈ 21.3 µM); inhibition zone (IZ) [15]: 28 mm; inhibition zone (IZ) [18]: 24 mm; inhibition zone (IZ) [30]: 23 mm; MIC [25]: > 6.25 µg/mL; inhibition zone (IZ) [26]: 24 mm |
